# Results published in patent US20130273557A1 (priority 2010, published 2013).
# “Also recorded” adds a separate entry of the source.
# Columns and labels:
# [1] = tested on: SH-SY5Y neuroblastoma cells; test: PSI-induced cell death in SH-SY5Y cells (CellTiter-Blue)
# Protocol: Data shown represent mean±SEM. […] Bar graphs represent normalized mean±SEM. Cell viability was measured by CellTiter-Blue®; n=41-98 wells/condition.
# (§1) Undifferentiated SH-SY5Y human neuroblastoma cells (ATCC, Manasses, Va.) were maintained in humidified 5% CO2 in 1:1 Ham's F12 nutrient mixture with Glutamax® and Minimal Essential Medium with L-glutamine (MEM-Alpha), 10% FBS, and 1% penicillin/streptomycin (Gibco® Invitrogen Corp., Carlsbad, Calif.).
# (§2) Cellular viability was measured using CellTiter-Blue® (Promega Corp., Madison, Wis.) in black-walled optical imaging multiwell plates, and cellular ATP was measured using the CellTiter-Glo® (Promega Corp., Madison, Wis.) luminescence assay in opaque-walled multiwell plates according to the manufacturer's protocol.
# SMVs (F1FO ATP synthase) = SMVs (F1FO ATP synthase) (Rattus norvegicus, UniProt P19511+Q06647); settings: 20 μM unlabeled dexpramipexole; non-urea treated SMVs; preliminary experiment
# Protocol: SMVs were washed twice with IB. Filter units were incubated in Ultima Gold scintillation liquid (Perkin Elmer Health Sciences, Inc.) overnight. Samples were counted for ^14C with a Beckman Coulter LS 5000TD scintillation counter.
# [2] = tested on: SH-SY5Y neuroblastoma cells; settings: 30 μM
# Protocol: as §1
# (§3) OCR and ECAR were measured with a Seahorse® XF24 Flux Analyzer (Seahorse Bioscience, Billerica, Mass.). For PSI experiments on C2C12 cells, basal values were assessed in non-buffered DMEM Assay Medium without glucose, glutamine or pyruvate, and supplemented with 25 mM glucose, 6 mM Glutamax®, and 1 mM sodium pyruvate. […] Succinate and ADP stocks were diluted to 10× concentrations in pre-warmed XF MAS buffer, pH 7.2. Using a Plate Prep Station (Seahorse Bioscience, Billerica, Mass.), cells were washed with 1 mL buffer and were brought to 607 μL with buffer. […] Raw basal OCR and ECAR values were normalized as a percent of the mean control value for each individual experiment. Normalized data from experiments were expressed as mean±SEM.
# [3] = target: T1, intermediate- and large-conductance channel activity of PSI-mitochondria (Rattus norvegicus, UniProt P19511+Q06647); test: Patch clamp recording of brain-derived PSI-mitochondria; format: biochemical
# T1 sequence (P19511 43-256): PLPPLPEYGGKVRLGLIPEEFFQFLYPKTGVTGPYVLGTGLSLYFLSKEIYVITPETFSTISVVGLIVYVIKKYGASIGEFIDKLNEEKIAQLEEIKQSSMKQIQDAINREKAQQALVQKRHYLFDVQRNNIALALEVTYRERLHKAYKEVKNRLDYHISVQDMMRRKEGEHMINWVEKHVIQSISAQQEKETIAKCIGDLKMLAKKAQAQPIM
# T1 sequence (Q06647 24-213): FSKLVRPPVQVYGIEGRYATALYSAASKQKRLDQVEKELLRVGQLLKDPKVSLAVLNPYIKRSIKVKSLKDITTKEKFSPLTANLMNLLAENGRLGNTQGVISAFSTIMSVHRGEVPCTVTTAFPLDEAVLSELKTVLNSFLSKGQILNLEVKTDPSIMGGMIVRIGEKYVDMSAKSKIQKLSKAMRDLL
# Protocol: Isolation of Brain-derived Mitochondria. Standard techniques were adapted for isolating brain-derived mitochondria. Mitochondria were stored in isolation buffer (IB) at −80° C. For PSI-mitochondria, male Sprague-Dawley rats (6 wo, ˜200 gm, 3-6 rats/group/condition, at least 2 different preparations/experimental paradigm) were injected with the ubiquitin proteasome inhibitor Z-Ile-Glu(OtBu)-Ala-Leu-al (PSI; Peptides International Inc, Kentucky, USA; s.c. every other day for 1 or 2 weeks; 6.0 mg/kg PSI in DMSO, or with DMSO, 200 μL/rat), and mitochondria isolated and stored as above.
# (§4) Reagents were rapidly perfused into the recording chamber.
# [4] = doses that should produce pharmacodynamically effective CNS concentrations; cited from earlier work
# [5] = tested on: digitonin-permeabilized cultured cortical neurons
# Protocol: Primary rat cortical cultures were incubated with digitonin (10 μg/ml) and rotenone (100 nM) for 45 minutes in MAS1 buffer prior to measurement of oxygen consumption rate (OCR) by a Seahorse® flux analyzer. […] Data are shown as a percentage of the control group OCR±SEM.
# Primary cultures of cortical neurons were prepared as described previously, plated at 8×10^5 cells/well for Seahorse XF24 experiments and grown in Neurobasal A supplemented with B27, 1 mM glutamine and penicillin/streptomycin for […] in vitro (DIV). On DIV 7, media without antibiotics was substituted. The cultures were used on DIV 9-10.
# as §3
# [6] = target: human F1FO ATP synthase OSCP subunit (Homo sapiens, UniProt P48047); settings: co-incubation in 'cold' dexpramipexole (100 μM)
# Chain of human F1FO ATP synthase OSCP subunit (P48047 24-213): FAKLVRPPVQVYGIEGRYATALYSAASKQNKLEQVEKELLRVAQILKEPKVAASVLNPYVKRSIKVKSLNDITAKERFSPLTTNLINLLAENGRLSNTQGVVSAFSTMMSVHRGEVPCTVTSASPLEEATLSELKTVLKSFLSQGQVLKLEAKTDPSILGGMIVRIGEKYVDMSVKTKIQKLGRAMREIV
# Source text: The human ORF constructs for alpha, beta, b, c, delta, d, epsilon, gamma and OSCP ATP synthase subunits, tagged with Myc and DDK (Flag) tags were from Origene Technologies (Rockville, Md.). 293T cells were transfected with the above constructs, using the calcium phosphate method (Li et al. 2008). On day-3 post transfection, the cells were lysed and the fusion proteins were bound to the EZview™ Red ANTI-FLAG® M2 Affinity Gel (Sigma, USA), according to the manufacturer's protocol. The proteins were eluted from a portion of the samples and presence of the proteins on the beads was verified by immunoblot analysis, using the mouse anti-Myc antibodyies (Cell signaling Technology). […] They were spun at 3000×g in 0.45 um Spin-X centrifugal devices (Corning Life Sciences, USA) for 10 min. The samples were washed three times with PBS and the filter units were incubated in Ultima Gold scintillation liquid (Perkin Elmer Health Sciences, Inc.) overnight. Samples were counted for ^14C, using a Beckman Coulter LS 5000TD scintillation counter.
# [7] = target: leak conductance of SMVs enriched in F1FO ATP synthase (complex V) (Rattus norvegicus, UniProt P19511+Q06647); test: biochemical
# Protocol: as §4
# Giga-ohm seals were formed on SMVs using pipettes and solutions as above. Peak membrane conductance was measured as described above.
# [8] = tested on: single cultured hippocampal neurons; settings: acute application of 10 μM, after 1-5 min
# Protocol: Oxygen uptake was measured in single hippocampal neurons in culture (DIV 14-17). A […] (tip diameter) oxygen-sensing electrode oscillated 10 μm close-to and away-from the cell every 3 sec. The difference in current detected at the two positions was translated into oxygen flux.
# [9] = tested on: G93A-SOD1 mutant mouse model of ALS; settings: independent laboratory; cited from earlier work
# C2C12 cells = format: cell-based, mouse; settings: dexpramipexole 30 μM or PSI 30 nM, 18 hr, relative to control
# Protocol: Data are presented as a percentage of the vehicle-treated control ±SEM (n=10 wells at each concentration). […] Experiments commenced 18 hr. after addition of drug. […] Data are presented as a percentage of the vehicle-treated control±SEM (n=14-17 wells for each group).
# The C2C12 mouse myoblast cell line (ATCC, Manasses, Va.) was cultured in Dulbecco's Modified Eagle Medium (DMEM; Gibco®; Carlsbad, Calif.) supplemented with 10% fetal bovine serum (FBS), 2 mM GlutaMax® and penicillin/streptomycin. Cells were maintained in 10% CO2 humidified at 37° C.
# as §2
# [10] = 30 μM applied 1 hr prior to recording
structure (smiles),measurement,setting,value
"CCCN[C@@H]1CCc2nc(N)sc2C1 [dexpramipexole, (6R)-4,5,6,7-tetrahydro-N-6-propyl-2,6-benzothiazole-diamine]",cytoprotective concentrations,[1],≥ 10 µM
same,protection against PSI-induced cell death,[1]; pretreatment with dexpramipexole,protective; also recorded: inhibited PSI-induced cell death in a concentration-dependent manner
same,reduction in ^14C-dexpramipexole binding by competition,SMVs (F1FO ATP synthase),34%
same,basal oxygen consumption rate (OCR),[2],modestly decreased
same,Hill slope of concentration-response curve,[3]; NPO inhibition in PSI-mitochondria,< 1
same,concentration for full inhibition of aberrant currents (EC100),[3]; PSI-mitochondria,> 10 µM
same,intermediate- and large-conductance channel activity,[3]; PSI-mitochondria,the inhibition was concentration-dependent and reversible
same,peak conductance,"[3]; dexpramipexole 2 μM, CSA 1 μM, PSI-mitochondria",significantly and reversibly decreased peak conductance
same,concentrations producing complete elimination of aberrant currents (EC100),[3]; level stated in discussion,10 to 30 µM
same,safety and tolerability,[4],safe and well-tolerated
same,OCR during succinate incubation,[5]; [10],lower OCR
same,OCR following an ADP pulse,[5]; [10],significantly lower OCR
same,increase in OCR produced by succinate and following the ADP pulse,[5]; acute application 30 μM,less than in control cells
same,basal respiration,"[5]; acute application 30 μM, rotenone",did not affect
same,competition of ^14C-dexpramipexole binding to OSCP subunit,[6],significantly reduced binding
same,EC50,[7],111 nM
same,currents in SMVs,"[7]; high [Ca^2+], 2 μM dexpramipexole, 1.0 μM CSA",inhibited
same,decrease in average oxygen flux,[8],~16%
same,in vivo survival,[9],significantly increased in vivo survival
same,ATP levels,C2C12 cells,neither ATP levels nor cell viability (FIG. 5b) were significantly affected
